Test results as given in patent publication US20200068887A1, “TREATMENT FOR REMOVING ECTOPARASITES FROM FISH” (priority 2016, published 2020).

Experiments:
Type in all cases: in vivo
[1] = test system: Lepeophtheirus salmonis; assay: Immersion treatment of sea lice challenged salmon with 10, 30 and 50 ppm imidacloprid; conditions: for Abundance (and range) of adult female lice / Abundance (and range) of adult male lice / Abundance (and range) of ovigerous females / Mean abundance (and range) or all lice stages / Prevalence: lice counted week 8
Text: Eight flow-through treatment tanks each containing 15 fish were set up. The fish were Salmon (Salmo salar) having an average weight of approximately 270 g and of mixed sex. Egg strings removed from ovigerous female Lepeophtheirus salmonis were collected and cultured until infective copepodids were produced. Eight bottles containing approximately 330-350 copepodids were each randomly allocated to a treatment tank (to provide an average of 22 lice per fish).
In preparation for the challenge, water flows in the tanks were stopped and light levels reduced. The lice were then added to each tank and the tanks maintained in total darkness for 6 hours after which light levels were raised and the water flow resumed.
The fish were challenged with sea lice for either one week or for six weeks.
One week after the sea lice challenge, fish in three of the tanks were treated with either 10 ppm w/v, 30 ppm w/v or 50 ppm w/v imidacloprid. One of the tanks was treated with 0.03% DMSO and another tank sham treated with sea water as controls.
For each treatment tank, the appropriate amount of imidacloprid (see Table 1) was dissolved in 100 ml of DMSO and mixed with approximately 900 ml of sea water from the experimental tank to obtain a treatment solution. The water flow on the experimental tanks was disabled and the treatment solution was then added.
Fish were exposed for 60 minutes in static water with full aeration and observed during the exposure period. At the end of the exposure period the water was rapidly drained to approximately ⅓ volume, before the flows were resumed in the tanks
Six weeks after the fish were challenged with sea lice, the fish in the three remaining treatment tanks were treated with either 10 ppm w/v, 30 ppm w/v or 50 ppm w/v imidacloprid. The treatment was carried out in the same way as for the treatment tanks one week post challenge (see 1.2.1).
Eight weeks after the fish were challenged with sea lice, the study was terminated. Fish were over anaesthetised in MS222 (tricaine methanesulfonate) and pithed using an Iki Jime tool. The length and weight of each fish and external symptoms were recorded. All lice were removed from each fish and note made of sex and stage of development. The lice were stored in ethanol and sex and stage confirmed using stereo microscope.
The data is expressed as prevalence and abundance. Prevalence is defined as the number of hosts infected with one of more individuals of a parasite species divided by the number of hosts examined (including infected and uninfected hosts) and expressed as a percentage.

[2] = test system: L. salmonis; assay: Field well boat treatment, pre- vs post-treatment sea lice counts; conditions: 20 ppm 60 min on well boat, within 24 hours after treatment, 30 fish per pen; pens A-D
Procedure: The effectiveness of imidacloprid against pre-adult and adult stages of L. salmonis and Caligus sp. infections on farmed Atlantic salmon was investigated by performing pre- and post-treatment sea lice counts on salmon undergoing a treatment with imidacloprid. This trial was conducted at a commercial salmon farm in Norway. The salmon were pumped onto a well boat and were exposed to 20 ppm imidacloprid for 60 minutes. The average weight of the salmon was 3.5 kg and the average number of salmon per pen was 180,000. 30 fish per pen were assessed for L. salmonis and Caligus sp., and the number of each L. salmonis life stage found was recorded. This was performed within 24 hours prior to treatment, and within 24 hours after treatment.
These assessments were made on four pens of salmon in total. Prior to treatment, fish were crowded within the pen to enable them to be pumped into the well boat, which is where the pre-treatment sea lice assessments were conducted. The post-treatment sea lice assessments were made by removing fish from the outflow pipe on the well boat.
At all time points, 3 fish were removed and placed into an anaesthetic bath. This was repeated 10 times until 30 fish had been assessed.
The numbers of sea lice observed per fish for this trial for each of the four tested pens according to sea lice life cycle state, pre- or post-administration of active are presented in Table 5.

[3] = test system: pre-adult and adult sea lice; assay: Timescale of effect of imidacloprid against sea lice on killed salmon hosts; conditions: for lice that left the host: around 12° C.
Procedure: To determine the timescale of the effect of imidacloprid, salmon infected with pre-adult and adult sea lice were removed from a stock tank and killed using a sharp blow to the head.
For fish exposed to 0 ppm imidacloprid (negative controls), observations were made for 60 minutes. […] Three fish per treatment group were tested.
Observations on the time at which lice left the host, and the sex and stage of the sea louse was noted. Any lice that left the host were transferred to clean sea water immediately. Furthermore, any lice remaining on the host at the end of the exposure period were removed from the host and transferred to clean sea water.
Lice were observed both shortly after and approximately 2 hours after the end of the exposure period.
The ratio of male to female sea lice was around 50:50. The water temperature was around 12° C.

[4] = 10 ppm w/v 60 min, treated 1 week post challenge
[5] = 10 ppm w/v 60 min, treated 6 weeks post challenge
[6] = 30 ppm w/v 60 min, treated 1 week post challenge
[7] = 30 ppm w/v 60 min, treated 6 weeks post challenge
[8] = 50 ppm w/v 60 min, treated 1 week post challenge, two fish removed from group
[9] = 50 ppm w/v 60 min, treated 6 weeks post challenge

O=[N+]([O-])NC1=NCCN1Cc1ccc(Cl)nc1 [imidacloprid]
prevalence of infection of all lice stages versus the two control groups ([1]; 10, 30 or 50 ppm w/v, treated one week post challenge, examined week 8): not considered to differ | Abundance (and range) of adult female lice [1, 4]: 0.067 (0-1) | Abundance (and range) of adult male lice [1, 4]: 0.87 (0-2) | Abundance (and range) of ovigerous females [1, 4]: 1.47 (0-3) | Mean abundance (and range) or all lice stages [1, 4]: 2.4 (1-5) | Prevalence [1, 4]: 100% | Abundance (and range) of adult female lice [1, 5]: 0 | Abundance (and range) of adult male lice [1, 5]: 0 | Abundance (and range) of ovigerous females [1, 5]: 0 | Mean abundance (and range) or all lice stages [1, 5]: 0 | Prevalence [1, 5]: 0% | infected fish (each with a single ovigerous female) ([1]; 10 ppm w/v, 6 weeks post challenge, 54 minutes after addition): 2 fish | lice remaining on fish ([1]; 10 ppm w/v, 6 weeks post challenge, 91 minutes after addition, louse stayed at least five days): a single male louse was observed on the head of its host | lice observed in the water column ([1]; 10 ppm w/v, 6 weeks post challenge, first 19 minutes after addition): Lice were not observed in the water column | Abundance (and range) of adult female lice [1, 6]: 0 (0-0) | Abundance (and range) of adult male lice [1, 6]: 0.8 (0-1) | Abundance (and range) of ovigerous females [1, 6]: 1.4 (0-3) | Mean abundance (and range) or all lice stages [1, 6]: 2.2 (0-4) | Prevalence [1, 6]: 93.33% | Abundance (and range) of adult female lice [1, 7]: 0 | Abundance (and range) of adult male lice [1, 7]: 0 | Abundance (and range) of ovigerous females [1, 7]: 0 | Mean abundance (and range) or all lice stages [1, 7]: 0 | Prevalence [1, 7]: 0% | lice on the fish with re-attached lice ([1]; 30 ppm w/v, 6 weeks post challenge, 6 minutes after the 78 minute observation): no lice were observed on these fish | lice observed in the water column ([1]; 30 ppm w/v, 6 weeks post challenge, 10 minutes after addition): 1-2 lice | lice present in the water column ([1]; 30 ppm w/v, 6 weeks post challenge, 18 minutes after addition): approximately 10 lice | lice noted in the water ([1]; 30 ppm w/v, 6 weeks post challenge, 25 minutes after addition): approximately 20 lice | fish appearing infected (estimated 1-2 lice per fish) ([1]; 30 ppm w/v, 6 weeks post challenge, 25 minutes after addition, 15 fish per tank): less than 6 fish | infection status of fish ([1]; 30 ppm w/v, 6 weeks post challenge, 33 minutes after addition): most fish were considered to be negative for any lice infections | fish appearing infected (each with a single louse) ([1]; 30 ppm w/v, 6 weeks post challenge, 47 minutes after addition): 3 fish | infection status of fish ([1]; 30 ppm w/v, 6 weeks post challenge, 59 minutes after addition): no fish were visibly infected with lice | fish with re-attached louse (1 louse each) ([1]; 30 ppm w/v, 6 weeks post challenge, 78 minutes after addition): 4 fish | lesions associated with feeding and attachment of lice ([1]; 30 ppm w/v, two days post-treatment): almost completely resolved | Abundance (and range) of adult male lice [1, 8]: 1.23 (0-3) | Abundance (and range) of ovigerous females [1, 8]: 1.69 (0-5) | Abundance (and range) of adult female lice [1, 9]: 0 | Abundance (and range) of adult male lice [1, 9]: 0 | Abundance (and range) of ovigerous females [1, 9]: 0 | Mean abundance (and range) or all lice stages [1, 9]: 0 | Prevalence [1, 9]: 0% | fish noted as infected (each with a single louse) ([1]; 50 ppm w/v, 6 weeks post challenge, 44 minutes after addition, 15 fish per tank): five | fish with a single louse infection ([1]; 50 ppm w/v, 6 weeks post challenge, 53 minutes after addition): 2-3 fish | lice remaining on fish ([1]; 50 ppm w/v, 6 weeks post challenge, 58 minutes after addition): only one louse was apparent on a single fish | lice remaining on fish ([1]; 50 ppm w/v, 6 weeks post challenge, 81 minutes after addition): no lice were visible on the fish | lice detached from the host, free in the water column ([1]; 50 ppm w/v, 6 weeks post challenge, after 12 minutes): approximately 10 lice | lice observed in the water column ([1]; 50 ppm w/v, 6 weeks post challenge, after 18 minutes): approximately 20 lice | lice observed in the water column ([1]; 50 ppm w/v, 6 weeks post challenge, between 2 and 6 minutes after addition): No lice were observed | lesions associated with feeding and attachment of lice ([1]; 50 ppm w/v, two days post treatment): almost completely resolved | effectiveness against motile parasitic stages of lice ([1]; all treatment doses (10, 30, 50 ppm w/v), treated six weeks after challenge): 100% | overall lice abundances compared with the DMSO control ([1]; treated one week post challenge): No significant differences | sea lice per fish, Adult Female, Post [2]: 0.0 | sea lice per fish, Adult Male, Post [2]: 0.0 | sea lice per fish, Gravid Female, Post [2]: 0.0 | sea lice per fish, Pre-Adult Female, Post [2]: 0.0 | sea lice per fish, Pre-Adult Male, Post [2]: 0.0 | sea lice per fish, Total, Post [2]: 0.0 | lice considered dead ([3]; 20 mg/L, 30 minutes post-exposure, of 49 lice): two | signs of recovery in clean sea water ([3]; 20 ppm, lice exposed for 30 minutes): No lice exposed for 30 minutes showed signs of recovery | lice deemed alive and responsive ([3]; 20 ppm, out of 49 lice): Twelve | lice considered dead ([3]; 50 ppm, 2 hours p.e., of 21 lice): 14 lice | lice considered dead ([3]; 50 ppm, at 30 minutes, of 21 lice): four | lice considered dead ([3]; 100 ppm, 2 hours p.e.): 17/28 | lice considered dead ([3]; 100 ppm, end of the exposure period, of 28 lice): four | lice considered dead ([3]; 200 ppm, 2 hours post-exposure, of 26 lice): Six | lice considered dead ([3]; 200 ppm, end of the exposure period, of 26 lice): four | lice considered dead ([3]; 500 ppm, 30 minutes p.e., out of 20 lice): Six | lice considered dead ([3]; 500 ppm, 2 hours p.e.): 15/20 | lice that left the host ([3]; 500 ppm, within the first 9 minutes): around 70% | lice that left the host ([3]; between 20 and 200 ppm, within the first 15 minutes): around 50%
